Results as given in patent publication US7538106B2, “Application of 2-cyano-10- (2-methyl-3- (methylamino)- propyl) phenothiazine or a pharmaceutically acceptable salt as medicament” (Aventis Pharmaceuticals Inc., priority 2003, dated 2009).

Tests used:
M1 (h) = biological target: T1, M1 (h) (Homo sapiens, UniProt P11229); test: Binding to membrane receptors of central neuromediators of human origin: M1; conditions: M1 (h) receptor binding
T1 sequence (P11229 1-460): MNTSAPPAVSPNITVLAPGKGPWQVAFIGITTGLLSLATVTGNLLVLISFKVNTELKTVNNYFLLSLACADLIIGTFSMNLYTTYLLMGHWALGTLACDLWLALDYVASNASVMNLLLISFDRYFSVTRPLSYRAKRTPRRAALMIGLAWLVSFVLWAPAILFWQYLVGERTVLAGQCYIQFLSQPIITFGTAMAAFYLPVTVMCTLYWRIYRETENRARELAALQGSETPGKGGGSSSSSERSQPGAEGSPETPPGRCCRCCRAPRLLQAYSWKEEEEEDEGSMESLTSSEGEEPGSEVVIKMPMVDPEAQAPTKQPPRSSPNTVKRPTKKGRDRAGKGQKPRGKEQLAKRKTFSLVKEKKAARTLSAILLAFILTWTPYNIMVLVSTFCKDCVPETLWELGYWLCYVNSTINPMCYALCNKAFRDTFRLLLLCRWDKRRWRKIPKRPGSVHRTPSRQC
Excerpt: (§1) The results of this study of binding to these various membrane receptors of central neuromediators of human origin are presented in Table 1.

5-HT2A (h) = 5-HT2A (h) (Homo sapiens, UniProt P28223); test: Binding to membrane receptors of central neuromediators of human origin: 5-HT2A; conditions: 5-HT2A (h) receptor binding
5-HT2A (h), sequence (P28223 whole entry): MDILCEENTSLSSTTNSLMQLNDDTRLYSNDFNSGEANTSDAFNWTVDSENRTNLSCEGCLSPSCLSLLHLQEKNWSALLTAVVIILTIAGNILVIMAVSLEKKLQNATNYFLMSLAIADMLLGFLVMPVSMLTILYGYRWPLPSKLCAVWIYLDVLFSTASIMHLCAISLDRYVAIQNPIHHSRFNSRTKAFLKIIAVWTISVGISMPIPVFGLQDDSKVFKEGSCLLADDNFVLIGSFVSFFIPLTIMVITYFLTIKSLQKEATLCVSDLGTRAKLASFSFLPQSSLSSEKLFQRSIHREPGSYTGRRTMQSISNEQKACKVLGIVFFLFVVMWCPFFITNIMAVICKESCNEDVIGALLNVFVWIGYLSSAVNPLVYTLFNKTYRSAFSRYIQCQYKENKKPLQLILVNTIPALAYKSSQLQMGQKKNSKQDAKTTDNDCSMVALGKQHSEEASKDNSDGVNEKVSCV

5-HT2c (h) = 5-HT2c (h) (Homo sapiens, UniProt P28335); test: Binding to membrane receptors of central neuromediators of human origin: 5-HT2c
5-HT2c (h), sequence (P28335 33-458): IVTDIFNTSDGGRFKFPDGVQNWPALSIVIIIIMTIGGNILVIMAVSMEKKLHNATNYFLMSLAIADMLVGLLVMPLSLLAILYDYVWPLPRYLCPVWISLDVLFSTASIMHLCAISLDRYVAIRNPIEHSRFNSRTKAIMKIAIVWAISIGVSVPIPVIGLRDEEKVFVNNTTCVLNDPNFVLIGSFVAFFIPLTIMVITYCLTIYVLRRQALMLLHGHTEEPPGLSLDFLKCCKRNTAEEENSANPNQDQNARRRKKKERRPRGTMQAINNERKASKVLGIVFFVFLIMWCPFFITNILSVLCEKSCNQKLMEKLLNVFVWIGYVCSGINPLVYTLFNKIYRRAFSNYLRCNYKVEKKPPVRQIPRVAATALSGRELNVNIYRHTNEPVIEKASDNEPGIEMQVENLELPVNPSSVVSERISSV

mice = test: Actimetry test (sedative activity, spontaneous motor activity); format: in vivo; conditions: spontaneous motor activity recorded for 10 minutes
Procedure: The sedative activity of the product was determined with mice according to an actimetry test. The actimeter is a device composed of 6 transparent cages in which the animals are individually placed. Photoelectric cells make it possible to detect movements in the cages (by cutting the beam). The spontaneous motor activity is recorded for 10 minutes. The results are expressed in the mean form and in the form of percentage of activity with respect to the control batch. The results are expressed in Table 2.

M3 (h) = M3 (h) (Homo sapiens, UniProt P20309); test: Binding to membrane receptors of central neuromediators of human origin: M3; conditions: M3 (h) receptor binding
M3 (h), sequence (P20309 whole entry): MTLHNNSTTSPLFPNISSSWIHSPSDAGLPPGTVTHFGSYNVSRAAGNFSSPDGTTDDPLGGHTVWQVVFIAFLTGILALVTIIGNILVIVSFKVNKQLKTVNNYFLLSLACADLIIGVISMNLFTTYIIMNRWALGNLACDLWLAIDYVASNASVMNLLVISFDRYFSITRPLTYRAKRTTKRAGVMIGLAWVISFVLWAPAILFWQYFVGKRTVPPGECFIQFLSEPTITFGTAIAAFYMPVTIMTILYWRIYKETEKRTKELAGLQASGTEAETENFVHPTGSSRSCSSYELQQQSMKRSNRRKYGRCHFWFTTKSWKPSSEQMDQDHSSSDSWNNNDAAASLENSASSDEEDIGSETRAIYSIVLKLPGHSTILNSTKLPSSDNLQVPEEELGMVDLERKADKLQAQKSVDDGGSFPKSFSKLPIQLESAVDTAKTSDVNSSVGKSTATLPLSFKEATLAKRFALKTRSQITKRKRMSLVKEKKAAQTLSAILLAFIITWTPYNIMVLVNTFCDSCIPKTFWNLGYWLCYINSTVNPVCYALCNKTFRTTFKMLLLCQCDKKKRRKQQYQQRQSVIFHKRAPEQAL
Excerpt: as §1

D2 (h) = D2 (h) (Homo sapiens, UniProt P14416); test: Binding to membrane receptors of central neuromediators of human origin: D2; conditions: D2 (h) receptor binding
D2 (h), sequence (P14416 whole entry): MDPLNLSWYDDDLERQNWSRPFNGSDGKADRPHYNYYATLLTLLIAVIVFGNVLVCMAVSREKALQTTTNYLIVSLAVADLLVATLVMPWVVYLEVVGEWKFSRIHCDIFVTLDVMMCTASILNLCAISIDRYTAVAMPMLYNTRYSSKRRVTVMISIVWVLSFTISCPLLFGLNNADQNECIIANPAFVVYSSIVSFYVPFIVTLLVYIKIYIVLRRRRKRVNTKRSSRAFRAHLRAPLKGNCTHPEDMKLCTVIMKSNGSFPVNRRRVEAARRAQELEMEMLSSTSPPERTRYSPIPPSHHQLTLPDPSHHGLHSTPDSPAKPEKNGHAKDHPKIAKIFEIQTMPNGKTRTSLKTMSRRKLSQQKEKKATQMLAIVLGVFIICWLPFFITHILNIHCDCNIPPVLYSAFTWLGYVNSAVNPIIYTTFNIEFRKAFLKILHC
Excerpt: as §1

5-HT1A (h) = biological target: T2, 5-HT1A (h) (Homo sapiens, UniProt P08908); test: Binding to membrane receptors of central neuromediators of human origin: 5-HT1A; conditions: 5-HT1A (h) receptor binding
T2 sequence (P08908 1-422): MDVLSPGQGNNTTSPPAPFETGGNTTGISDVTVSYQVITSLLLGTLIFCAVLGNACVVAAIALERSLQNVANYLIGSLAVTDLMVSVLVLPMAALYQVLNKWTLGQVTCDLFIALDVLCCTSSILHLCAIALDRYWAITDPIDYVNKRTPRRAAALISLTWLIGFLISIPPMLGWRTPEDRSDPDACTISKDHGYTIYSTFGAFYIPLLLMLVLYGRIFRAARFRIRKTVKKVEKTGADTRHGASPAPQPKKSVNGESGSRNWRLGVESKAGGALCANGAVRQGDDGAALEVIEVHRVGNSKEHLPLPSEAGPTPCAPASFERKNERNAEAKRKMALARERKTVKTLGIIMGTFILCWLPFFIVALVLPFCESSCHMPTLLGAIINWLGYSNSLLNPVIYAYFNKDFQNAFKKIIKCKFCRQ
Excerpt: as §1

M2 (h) = biological target: T3, M2 (h) (Homo sapiens, UniProt P08172); test: Binding to membrane receptors of central neuromediators of human origin: M2; conditions: M2 (h) receptor binding
T3 sequence (P08172 1-466): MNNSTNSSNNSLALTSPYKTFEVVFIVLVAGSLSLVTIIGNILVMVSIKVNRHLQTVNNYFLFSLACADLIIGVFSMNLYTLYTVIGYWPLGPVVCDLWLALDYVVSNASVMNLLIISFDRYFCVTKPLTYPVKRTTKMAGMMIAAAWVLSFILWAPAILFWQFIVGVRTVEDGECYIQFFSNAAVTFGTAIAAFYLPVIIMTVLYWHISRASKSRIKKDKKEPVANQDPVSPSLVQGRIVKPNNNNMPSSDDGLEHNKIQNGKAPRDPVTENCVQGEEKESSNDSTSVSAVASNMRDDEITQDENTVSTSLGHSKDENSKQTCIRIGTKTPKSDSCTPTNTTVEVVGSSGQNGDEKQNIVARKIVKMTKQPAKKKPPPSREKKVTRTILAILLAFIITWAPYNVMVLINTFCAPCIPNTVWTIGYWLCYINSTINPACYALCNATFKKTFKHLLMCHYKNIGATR
Excerpt: as §1

H1 (h) = H1 (h) (Homo sapiens, UniProt P35367); test: Binding to membrane receptors of central neuromediators of human origin: H1; conditions: H1 (h) receptor binding
H1 (h), sequence (P35367 whole entry): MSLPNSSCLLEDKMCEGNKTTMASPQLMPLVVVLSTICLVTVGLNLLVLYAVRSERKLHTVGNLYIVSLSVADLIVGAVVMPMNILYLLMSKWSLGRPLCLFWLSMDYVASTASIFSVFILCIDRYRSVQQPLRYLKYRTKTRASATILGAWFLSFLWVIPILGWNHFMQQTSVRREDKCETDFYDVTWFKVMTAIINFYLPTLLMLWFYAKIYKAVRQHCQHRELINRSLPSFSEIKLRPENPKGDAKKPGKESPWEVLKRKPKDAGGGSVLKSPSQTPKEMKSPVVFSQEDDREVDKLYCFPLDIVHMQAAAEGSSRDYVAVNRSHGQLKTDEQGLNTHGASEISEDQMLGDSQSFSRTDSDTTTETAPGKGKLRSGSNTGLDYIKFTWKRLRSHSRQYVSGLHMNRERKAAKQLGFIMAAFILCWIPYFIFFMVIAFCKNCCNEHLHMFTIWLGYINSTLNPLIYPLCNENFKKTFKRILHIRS
Excerpt: as §1

## CNCC(C)CN1c2ccccc2Sc2ccc(C#N)cc21 (stereo not drawn) [2-cyano-10-(2-methyl-3-(methylamino)propyl)phenothiazine]
M1 (h)
  IC50: 21 nM
  Ki: 17 nM
5-HT2A (h)
  IC50: 9 nM
  Ki: 1.5 nM
5-HT2c (h); 5-HT2c (h) receptor binding
  IC50: 23 nM
  Ki: 8.5 nM
5-HT2c (h); in words
  affinity for 5-HT2c receptors: high affinity
mice; dose 0.75 mg/kg
  % of activity/control: 61%
mice; dose 1 mg/kg
  % of activity/control: 63%
mice; dose 2 mg/kg
  % of activity/control: 26%
mice; dose 4 mg/kg
  % of activity/control: 9%
M3 (h)
  IC50: 5490 nM
  Ki: 3920 nM
D2 (h)
  IC50: 31 nM
  Ki: 12 nM
5-HT1A (h)
  IC50: 460 nM
  Ki: 184 nM
M2 (h)
  IC50: 368 nM
  Ki: 251 nM
H1 (h)
  IC50: 22 nM
  Ki: 9.3 nM
